The values that follow come from patent publication US20060247420A1, “Immune cell recptor ligand and immune cell receptor” (priority 2002, published 2006).

Assay [1] concerns Letal mRNA in A2008 ovarian carcinoma cell line. The assay can be described thus: Letal mRNA expression in treated A2008 cells, real-time quantitative RT-PCR (TaqMan). The class given is cell-based, human. How it is done:
Quantification of Letal by real-time quantitative RT-PCR. Letal expression was analyzed by TaqMan analysis as previously described (Garcia et al, FASEB J 15(10):1819-1821 (2001)). The Letal system consisted of the primers: Letal.F, 5′-[…]-3′ (SEQ ID NO:13); Letal.R, 5′-[…]-3′ (SEQ ID NO:14), and the probe Letal.P, 5′-(FAM)[…] (SEQ ID NO:15) (TAMRA)-3′. The cDNA load was normalized to human GAPDH with primers GAPDH F: 5′-[…]-3′ (SEQ ID NO:16) and GAPDH R: 5′[…]-3′ (SEQ ID NO:17) and the probe GAPDH.P: 5′(FAM) […] (TAMRA)-3′ (SEQ ID NO:18).
Tissues, cell lines and purification of cells. Normal human tissues were obtained from the Cooperative Human Tissue Network (Zhang et al, N. Engl. J. Med. 348(3):203-213 (2003)). A2008 ovarian carcinoma cell line was treated for 24 h with serum-free medium (control) or serum-free medium containing either 10 U/ml interleukin (IL)-1β, 10 ng/ml tumor necrosis factor (TNF-α), 40 ng/ml interferon (IFNγ), 0.5 μg/ml Lypopolyssaccaride (LPS), or 10 ng/ml TNF-α plus 40 ng/ml IFN-γ. 10 ng/ml PMA was kept for 4 hs and retinoic acid for 24, 48, and 72 hs. All the cytokines were from Peprotech (Rocky Hill, N.J.), except retinoic acid (Sigma, St Louis, Mo.). Additionally, cells were cultured in media without glucose for 48 hs or under hypoxia (1.5% O2) for 16 hs. Fresh peripheral blood lymphocytes were obtained by leukapheresis and elutriation. […]
A general note: Quantitative PCR measures a nucleic acid by following its amplification.

Assay [2] concerns peripheral CD8^+ T-cells. Description: Cisplatin-induced apoptosis of pre-stimulated CD8+ lymphocytes, annexin-V. To be noted: pre-stimulated 3 days; 50 μM cisplatin for 17 hr. The class given is cell-based, human. The method, then:
(§1) Apoptosis assay. The percentage of apoptotic cells was determined after 17 h incubation with 50 μM cisplatin or 18 hs exposure to 0.1 μg/ml anti-CD95 mAb (EOS9.1; Pharmingen) by using the TACS annexin-V apoptosis detection kit, according to the manufacturer's instructions (R & D Systems). Fas expression was determined by flow cytometry by using EOS9.1 as a primary Ab and a PE-labeled anti-mouse IgM (R6-60.2; Pharmingen) as a second Ab.
Cytotoxic chemotherapy can, however, deplete tumor-specific effector T-cells (Lee et al, Nat. Med. 5:677-685 (1999)). Because the glycolytic pathway is implicated in lymphocyte survival (Plas et al, Nat. Immunol. 3:515-521 (2002)), a determination was made as to whether Letal could protect T-cells from early apoptotic death induced by genotoxic drugs.

In assay [3] the test system is peripheral CD8^+ T-cells. The assay can be described thus: Glucose uptake with [3H]-2-deoxyglucose in stimulated CD8+ T-cells. The class given is cell-based, human. To be noted: 20 hr stimulation. An excerpt:
(§2) CD8^+ lymphocyte stimulation, cytokine release and glucose metabolism analysis. To analyze the effects of Letal on the T-cell proliferation and production of cytokines, a previously described artificial antigen-presenting cell (aAPC) model was used (Maus et al, Nat. Biotechnol. 20:143-148 (2002)). Briefly, the system is based on the stable expression of the human low-affinity Fcγ receptor, CD32, on K562 cells (K32 cell line). K32 cell-based aAPCs were additionally transduced with Letal or with the empty vector as described above, irradiated with 100Gy, and washed twice with RPMI medium. Letal^+-K32 cells or mock transductants were loaded, when indicated, with anti-CD3 (OKT3), or anti-CD3 plus anti-CD28 (mAbs; 9.3) monoclonal antibodies at 0.5 μg/ml for 10 min at room temperature. Loaded aAPCs were mixed with CD8^+ T-cells at a 1:2 ratio and the T-cell concentration was maintained at 0.5×10^6 cells/ml throughout the culture. Cultures were pulsed with 1 μCi of [^3H] thymidine from day 2 to day 5 and incorporated radioactivity was determined using a 1450 Microbeta scintillation counter (Wallac, Turku, Finland). The amounts of secreted IL-2 and IFN-γ were determined by commercial ELISA, following the manufacturer's instructions (R & D Systems). […]
Glucose uptake rates were next measured with [^3H]-2-deoxyglucose in cells stimulated as described above. […]

The test system of assay [4] is NKG2D on peripheral CD8^+ T-cells. The assay can be described thus: NKG2D expression on CD8+ lymphocytes after co-culture with K32 aAPCs, flow cytometry. To be noted: peripheral CD8^+ T-cells co-cultured 4 days with K32 aAPCs; versus mock-transduced K32. The class given is cell-based, human.
Source text: as §2, with “lymphocyte stimulation and” for “lymphocyte stimulation,”, “cytokine release.” for “cytokine release and glucose metabolism analysis.”, “Biotechnol. 20(2):143-148” for “Biotechnol. 20:143-148”, “Loaded &APCs” for “Loaded aAPCs”, “and IFNγ” for “and IFN-γ”, “Systems). Flow cytometry was performed with a FACScalibur (BD Biosciences, San Jose, Calif.).” for “Systems).”
On the technique in general: Flow cytometry measures light scatter and fluorescence of single cells or particles in a stream.

The subject of assay [5] is glucose transporter Glut-1 in peripheral CD8^+ T-cells. Description: Glut-1 expression in stimulated CD8+ T-cells, flow cytometry. The class given is cell-based, human. The settings on record: 20 hr stimulation.
Source text: as §2, with “Letal^+-K32 cells or mock transductants were loaded, when indicated, with anti-CD3 (OKT3), or anti-CD3 plus anti-CD28 (mAbs; 9.3) monoclonal antibodies at 0.5 μg/ml for 10 min at room temperature. Loaded aAPCs were mixed with CD8^+ T-cells at a 1:2 ratio and the T-cell concentration was maintained at 0.5×10^6 cells/ml throughout the culture.” left out
Letal signaling increases glucose transporter expression and glucose uptake during T-cell activation. […] To test whether Letal may have a similar effect during T-cell activation, peripheral CD8^+ T-cells were stimulated for 20 hr with anti-CD3, anti-CD3/anti-CD28, anti-CD3/Letal, or Letal alone and the expression of the glucose transporter Glut-1 was analyzed by flow cytometry. […]

In assay [6] the test system is Fas on peripheral CD8^+ T-cells. The assay can be described thus: Fas expression on stimulated CD8+ T-cells, flow cytometry. To be noted: 4 days stimulation; compared to CD3/CD28 costimulated T-cells. The class given is cell-based, human. The method, then: as §1
Letal engagement protects CD8^+ T-cells from FasL-induced apoptosis. […] Because ovarian carcinomas express FasL and other lymphocyte-depleting death ligands (Rabinowich et al, J. Clin. Invest. 101:2579-2588 (1998)), the prevalence of FasL expression and its impact on TILs was determined in 42 stage III ovarian carcinoma specimens. Strong FasL immunoreactivity was detected in tumor cells in areas of selected specimens (FIG. 10A), as well as in a proportion of stromal leukocytes. To test whether Letal promotes the generation of activated T-cell subpopulations that are able to resist the pro-apoptotic tumor microenvironment, peripheral CD8^+ T-cells were stimulated for 4 days with CD3/Letal, CD3/CD28, or anti-CD3 alone, and expression of Fas was measured by flow cytometry. […]

For assay [7], the system named is peripheral CD8^+ T-cells. Description: CD8+ lymphocyte proliferation/expansion with K32 aAPCs ([3H] thymidine). To be noted: day 5; three independent experiments. The class given is cell-based, human.
Source text: as §2, with “lymphocyte stimulation and” for “lymphocyte stimulation,”, “cytokine release.” for “cytokine release and glucose metabolism analysis.”, “Biotechnol. 20(2):143-148” for “Biotechnol. 20:143-148”, “Loaded &APCs” for “Loaded aAPCs”, “and IFNγ” for “and IFN-γ”, “Systems). Flow cytometry was performed with a FACScalibur (BD Biosciences, San Jose, Calif.).” for “Systems).”

Assay [8] concerns the target T1, Lymphocyte Effector cell Toxicity Activating Ligand (Letal) (human, UniProt Q8TD07 29-263).
T1 construct: Expressed from the complete open reading frame by retroviral transduction on K562 and SKOV3 cells; also called ULBP4; RAET1E
T1 sequence: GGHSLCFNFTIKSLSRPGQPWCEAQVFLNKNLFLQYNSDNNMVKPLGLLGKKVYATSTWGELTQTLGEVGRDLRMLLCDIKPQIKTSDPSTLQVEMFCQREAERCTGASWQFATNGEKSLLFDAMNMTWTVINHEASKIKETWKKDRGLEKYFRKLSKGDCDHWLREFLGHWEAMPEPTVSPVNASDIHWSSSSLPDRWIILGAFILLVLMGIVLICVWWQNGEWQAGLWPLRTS
Description: flow cytometry, 3 µg/ml NKG2D/Fc on Letal-transduced K562 and SKOV3 cells, detected with anti-human IgG mAb. From the text: Constructs and generation of antibodies. SKOV3 and K562 cells were transduced using retroviral vector MIGR1, generously provided by Warren Pear (University of Pennsylvania). Letal or mock transductants expressing equivalent levels of the green fluorescent protein were sorted and cultured by standard procedures. […] Anti-human IgG mAb (G18-145; Pharmingen, San Diego, Calif.) was used to detect the chimerical molecule.
Letal is a ligand of NKG2D expressed in a variety of normal tissues. […] Expression of the Letal protein was confirmed on transduced cells, but not on mocked transductants, by flow cytometry using serum of Letal-immunized mice (FIG. 1D). […] To evaluate the binding of NKG2D to transduced Letal, a recombinant soluble NKG2D-Fc fusion protein was used, containing the ectodomain of the immunoreceptor (Phe78 through Val216). […] Treatment with phospholipase C decreased binding of sNKG2D to Letal⁺ K562 cells, although binding was higher than to control cells.

Regarding `CC1=C(/C=C/C(C)=C/C=C/C(C)=C/C(=O)O)C(C)(C)CCC1` [retinoic acid], in assay [1] (maximum, after 72 hr stimulation), the “decrease of Letal mRNA expression” value is 6 fold.
Take TNF-α: the “increase of basal Letal mRNA levels” value in assay [1] (TNF-α 10 ng/ml, 24 h) was 3 fold.
For “anti-CD3: anti-CD3 (OKT3) monoclonal antibody loaded on Letal^− K32 aAPCs [reference compound]”, in the assay with peripheral CD8^+ T-cells [2], the apoptosis after cisplatin entry is “higher percentage of apoptotic cells”. The glucose uptake rate result in the assay with peripheral CD8^+ T-cells [3] is reported as “little to no effect”. Also, the “increase of NKG2D expression” value in assay [4] was “same result than CD3/Letal stimulation”. Also, the “cells with altered Glut-1 expression” value in assay [5] is reported as 11%. Besides, the Fas expression result in assay [6] is listed as “markedly higher”. Moreover, in the assay on peripheral CD8^+ T-cells [7], the “fewer CD8^+ cells with CD3 stimulation in the absence of Letal” value is on record as 29%.

B1: recombinant human NKG2D/Fc chimera (R & D Systems) (Fc fusion, UniProt P26718 78-216, looked up)
chain: FLNSLFNQEVQIPLTESYCGPCPKNWICYKNNCYQFFDESKNWYESQASCMSQNASLLKVYSKEDQDLLKLVKSYHWMGLVHIPTNGSWQWEDGSILSPNLLTIIEMQKGDCALYASSFKGYIENCSTPNTYICMQRTV
notes: range 78-216; Bought reagent; also called NKG2D-Fc protein; recombinant soluble NKG2D-Fc fusion protein; Fc part of the bought chimera not given, detected with anti-human IgG mAb
As for B1, in assay [8], the binding result was “binds”.
